Experimental data: patent publication US20240092758A1, “IMIDAZOLO INDAZOLE COMPOUNDS AS JAK INHIBITORS” (Theravance Biopharma R&D IP, LLC, priority 2021, published 2024)

Legend:
[1] = tested on: IL-13 induced STAT6 phosphorylation in BEAS-2B human lung epithelial cells; assay: Cellular JAKI potency assay (BEAS-2B); assay type: cell-based; conditions: Homo sapiens, BEAS-2B, BEAS-2B cells, read-out: BEAS2B pIC50 (converted)
Procedure, shortened: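 AlphaLISA SureFire detection of Tyr641 pSTAT6 in lysates gave IC50s (4-parameter fit, expressed as pIC50). Cells: human BEAS-2B, exposed 1 h at 37 °C to compound dose series at 0.1% DMSO, then 30 min to IL-13 added at 80 ng/mL in HEPES-buffered HBSS with BSA.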

TYK2 = TYK2 (Homo sapiens (Human), UniProt P29597); assay: Biochemical JAK kinase assay (LanthaScreen), Tyk2; conditions: read-out: Tyk2 pKi (converted)
Procedure, shortened: (§1)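 LanthaScreen format: phospho-STAT1 (pTyr701) detected with 2 nM Tb antibody after 10 mM EDTA quench. Kinase step used Km-level ATP and 200 nM STAT1 peptide, 1 h at ambient after 1 h pre-incubation. Inhibition fitted to IC50, reported as pKi.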

JAK2 = JAK2 (Homo sapiens (Human), UniProt O60674); assay: Biochemical JAK kinase assay (LanthaScreen), JAK2; conditions: for Ki: read-out: JAK2 pKi (converted)
Procedure, shortened: as §1

JAK3 = JAK3 (Homo sapiens (Human), UniProt P52333); assay: Biochemical JAK kinase assay (LanthaScreen), JAK3; conditions: read-out: JAK3 pKi (converted)
Method: A panel of four LanthaScreen JAK biochemical assays (JAK1, 2, 3 and Tyk2) were carried in a common kinase reaction buffer (50 mM HEPES, pH 7.5, 0.01% Brij-35, 10 mM MgCl2, and 1 mM EGTA). Recombinant GST-tagged JAK enzymes and a GFP-tagged STAT1 peptide substrate were obtained from Life Technologies.
Serially diluted compounds were pre-incubated with each of the four JAK enzymes and the substrate in white 384-well microplates (Corning) at ambient temperature for 1 h. ATP was subsequently added to initiate the kinase reactions in 10 μL total volume, with 1% DMSO. The final enzyme concentrations for JAK1, 2, 3 and Tyk2 are 4.2 nM, 0.1 nM, 1 nM, and 0.25 nM respectively; the corresponding Km ATP concentrations used are 25 μM, 3 μM, 1.6 μM, and 10 μM; while the substrate concentration is 200 nM for all four assays. Kinase reactions were allowed to proceed for 1 hour at ambient temperature before a 10 μL preparation of EDTA (10 mM final concentration) and Tb-anti-pSTAT1 (pTyr701) antibody (Life Technologies, 2 nM final concentration) in TR-FRET dilution buffer (Life Technologies) was added. The plates were allowed to incubate at ambient temperature for 1 h before being read on the EnVision reader (Perkin Elmer). Emission ratio signals (520 nm/495 nm) were recorded and utilized to calculate the percent inhibition values based on DMSO and background controls.
For dose-response analysis, percent inhibition data were plotted vs. compound concentrations, and IC50 values were determined from a 4-parameter robust fit model with the Prism software (GraphPad Software). Results were expressed as pIC50 (negative logarithm of IC50) and subsequently converted to pKi (negative logarithm of dissociation constant, Ki) using the Cheng-Prusoff equation.
Test compounds having a lower Ki value or higher pKi value in the four JAK assays show greater inhibition of JAK activity.

JAK1 = JAK1 (Homo sapiens (Human), UniProt P23458); assay: Biochemical JAK kinase assay (LanthaScreen), JAK1; conditions: for Ki: read-out: JAK1 pKi (converted)
Procedure, shortened: as §1

Sequence of JAK3 (P52333 whole entry): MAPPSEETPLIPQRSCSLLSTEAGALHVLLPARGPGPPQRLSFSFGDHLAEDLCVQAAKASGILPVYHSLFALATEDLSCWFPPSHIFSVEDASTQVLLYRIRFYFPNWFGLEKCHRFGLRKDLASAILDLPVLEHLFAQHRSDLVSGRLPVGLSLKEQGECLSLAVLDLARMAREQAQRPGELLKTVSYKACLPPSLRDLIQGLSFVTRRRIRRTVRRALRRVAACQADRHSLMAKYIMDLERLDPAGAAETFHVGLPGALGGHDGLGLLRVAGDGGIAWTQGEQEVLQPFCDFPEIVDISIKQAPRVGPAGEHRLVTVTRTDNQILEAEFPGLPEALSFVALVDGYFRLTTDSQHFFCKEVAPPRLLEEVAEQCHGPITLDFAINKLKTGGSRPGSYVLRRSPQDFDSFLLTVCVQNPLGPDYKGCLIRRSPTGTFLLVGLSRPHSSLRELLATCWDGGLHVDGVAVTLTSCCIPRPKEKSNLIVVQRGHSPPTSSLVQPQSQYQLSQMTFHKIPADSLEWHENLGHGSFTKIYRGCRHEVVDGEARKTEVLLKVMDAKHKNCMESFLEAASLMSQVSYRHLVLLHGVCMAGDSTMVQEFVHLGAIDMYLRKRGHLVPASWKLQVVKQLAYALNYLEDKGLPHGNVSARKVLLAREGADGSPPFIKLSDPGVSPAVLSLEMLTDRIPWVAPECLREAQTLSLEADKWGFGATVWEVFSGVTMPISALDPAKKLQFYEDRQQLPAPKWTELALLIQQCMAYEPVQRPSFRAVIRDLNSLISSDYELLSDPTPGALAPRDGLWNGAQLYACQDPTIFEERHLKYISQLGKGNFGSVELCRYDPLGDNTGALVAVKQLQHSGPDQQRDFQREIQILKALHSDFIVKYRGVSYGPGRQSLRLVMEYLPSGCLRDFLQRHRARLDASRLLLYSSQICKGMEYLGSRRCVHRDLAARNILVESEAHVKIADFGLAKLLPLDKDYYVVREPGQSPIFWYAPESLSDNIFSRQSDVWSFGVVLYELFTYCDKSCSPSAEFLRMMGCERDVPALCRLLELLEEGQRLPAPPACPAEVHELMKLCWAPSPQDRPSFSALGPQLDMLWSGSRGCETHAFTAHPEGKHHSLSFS
Sequence of JAK1 (P23458 whole entry): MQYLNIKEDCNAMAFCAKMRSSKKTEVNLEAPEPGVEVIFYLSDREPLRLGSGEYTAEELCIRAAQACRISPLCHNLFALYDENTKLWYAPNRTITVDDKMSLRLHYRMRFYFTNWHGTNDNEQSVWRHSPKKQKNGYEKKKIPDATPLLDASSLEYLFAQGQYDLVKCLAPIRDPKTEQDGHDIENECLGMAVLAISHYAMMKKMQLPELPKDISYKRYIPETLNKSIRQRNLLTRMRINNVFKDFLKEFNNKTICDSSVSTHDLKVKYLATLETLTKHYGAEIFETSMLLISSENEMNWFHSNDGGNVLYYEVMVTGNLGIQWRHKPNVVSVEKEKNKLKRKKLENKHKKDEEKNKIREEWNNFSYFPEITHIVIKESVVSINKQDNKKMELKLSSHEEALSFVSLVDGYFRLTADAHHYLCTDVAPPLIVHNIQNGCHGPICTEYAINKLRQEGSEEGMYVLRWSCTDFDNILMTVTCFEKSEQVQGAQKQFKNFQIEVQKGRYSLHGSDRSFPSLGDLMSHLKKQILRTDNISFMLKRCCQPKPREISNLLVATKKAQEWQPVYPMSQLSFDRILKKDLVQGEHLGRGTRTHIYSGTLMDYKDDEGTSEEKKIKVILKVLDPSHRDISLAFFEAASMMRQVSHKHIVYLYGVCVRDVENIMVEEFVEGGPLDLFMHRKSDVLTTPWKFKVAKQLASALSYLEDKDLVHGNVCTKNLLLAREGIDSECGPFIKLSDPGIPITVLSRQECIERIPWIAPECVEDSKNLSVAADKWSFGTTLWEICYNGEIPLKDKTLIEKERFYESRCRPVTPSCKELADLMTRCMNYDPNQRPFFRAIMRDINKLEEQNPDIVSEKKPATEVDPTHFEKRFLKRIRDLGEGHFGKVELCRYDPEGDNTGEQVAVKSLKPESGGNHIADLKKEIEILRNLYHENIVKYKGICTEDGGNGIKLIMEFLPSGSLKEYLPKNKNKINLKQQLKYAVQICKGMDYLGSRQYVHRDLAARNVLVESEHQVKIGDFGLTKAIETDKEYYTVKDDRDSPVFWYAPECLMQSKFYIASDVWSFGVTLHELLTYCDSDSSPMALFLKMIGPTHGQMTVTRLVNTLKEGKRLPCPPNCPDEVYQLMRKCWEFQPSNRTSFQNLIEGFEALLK
Sequence of TYK2 (P29597 whole entry): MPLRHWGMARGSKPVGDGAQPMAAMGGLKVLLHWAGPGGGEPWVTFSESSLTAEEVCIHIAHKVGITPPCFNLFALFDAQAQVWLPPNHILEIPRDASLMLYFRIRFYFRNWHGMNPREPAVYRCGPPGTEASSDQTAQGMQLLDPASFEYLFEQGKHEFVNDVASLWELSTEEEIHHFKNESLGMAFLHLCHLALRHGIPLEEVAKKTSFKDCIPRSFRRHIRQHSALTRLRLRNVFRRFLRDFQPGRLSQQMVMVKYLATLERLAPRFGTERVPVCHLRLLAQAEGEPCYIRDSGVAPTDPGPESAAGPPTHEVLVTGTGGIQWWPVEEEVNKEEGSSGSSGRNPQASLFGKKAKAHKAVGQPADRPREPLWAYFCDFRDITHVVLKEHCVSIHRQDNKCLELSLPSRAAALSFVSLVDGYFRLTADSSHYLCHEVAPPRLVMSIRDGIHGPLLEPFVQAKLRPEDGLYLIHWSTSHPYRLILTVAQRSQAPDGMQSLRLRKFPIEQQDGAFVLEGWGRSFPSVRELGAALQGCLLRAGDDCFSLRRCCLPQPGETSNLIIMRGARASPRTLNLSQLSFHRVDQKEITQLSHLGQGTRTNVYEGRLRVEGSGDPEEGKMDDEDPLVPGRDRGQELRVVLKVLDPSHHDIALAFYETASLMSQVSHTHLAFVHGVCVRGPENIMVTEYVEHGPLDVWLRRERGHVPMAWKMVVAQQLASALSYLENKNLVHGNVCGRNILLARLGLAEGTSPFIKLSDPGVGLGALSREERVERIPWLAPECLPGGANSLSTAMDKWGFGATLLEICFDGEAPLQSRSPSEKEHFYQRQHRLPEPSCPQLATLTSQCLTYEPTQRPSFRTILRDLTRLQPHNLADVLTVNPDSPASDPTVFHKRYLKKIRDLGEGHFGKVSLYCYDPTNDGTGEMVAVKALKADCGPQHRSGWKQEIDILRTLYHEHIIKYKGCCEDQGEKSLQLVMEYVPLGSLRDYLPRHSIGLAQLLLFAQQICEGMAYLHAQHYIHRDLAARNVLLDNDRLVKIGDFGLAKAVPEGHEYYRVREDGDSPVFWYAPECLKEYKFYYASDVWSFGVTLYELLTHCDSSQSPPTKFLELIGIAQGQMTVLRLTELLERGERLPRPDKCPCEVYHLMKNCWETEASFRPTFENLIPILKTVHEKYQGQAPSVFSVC
Sequence of JAK2 (O60674 whole entry): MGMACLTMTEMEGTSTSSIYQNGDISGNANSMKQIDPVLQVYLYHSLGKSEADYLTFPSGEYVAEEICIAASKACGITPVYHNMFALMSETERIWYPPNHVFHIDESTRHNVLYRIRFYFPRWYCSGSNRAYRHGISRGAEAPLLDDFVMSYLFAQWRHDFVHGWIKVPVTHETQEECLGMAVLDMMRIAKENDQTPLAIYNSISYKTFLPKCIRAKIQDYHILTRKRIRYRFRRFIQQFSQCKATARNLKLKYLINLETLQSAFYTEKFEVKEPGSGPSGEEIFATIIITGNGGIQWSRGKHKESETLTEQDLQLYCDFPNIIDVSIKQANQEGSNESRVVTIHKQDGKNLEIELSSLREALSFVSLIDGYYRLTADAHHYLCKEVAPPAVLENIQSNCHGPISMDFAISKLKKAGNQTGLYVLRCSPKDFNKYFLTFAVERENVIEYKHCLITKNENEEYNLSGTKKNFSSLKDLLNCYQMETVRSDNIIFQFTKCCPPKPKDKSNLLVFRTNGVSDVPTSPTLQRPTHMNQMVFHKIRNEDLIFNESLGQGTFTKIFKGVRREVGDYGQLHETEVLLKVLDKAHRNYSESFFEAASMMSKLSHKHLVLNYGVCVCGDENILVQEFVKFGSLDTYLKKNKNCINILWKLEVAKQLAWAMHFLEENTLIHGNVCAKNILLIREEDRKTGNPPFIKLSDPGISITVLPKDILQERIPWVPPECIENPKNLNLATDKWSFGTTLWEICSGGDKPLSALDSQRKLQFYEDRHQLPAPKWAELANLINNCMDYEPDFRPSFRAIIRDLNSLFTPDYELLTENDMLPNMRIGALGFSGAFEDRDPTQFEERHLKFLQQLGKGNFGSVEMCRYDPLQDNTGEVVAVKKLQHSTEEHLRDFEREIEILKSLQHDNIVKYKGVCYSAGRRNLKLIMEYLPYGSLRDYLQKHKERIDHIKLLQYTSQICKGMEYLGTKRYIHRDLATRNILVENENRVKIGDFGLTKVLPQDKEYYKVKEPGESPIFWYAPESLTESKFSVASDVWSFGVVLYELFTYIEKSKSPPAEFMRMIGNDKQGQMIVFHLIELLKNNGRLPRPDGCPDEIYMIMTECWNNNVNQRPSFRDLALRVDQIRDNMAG

| SMILES | IC50 [1] [nM] | Ki (TYK2) [nM] | Ki (JAK2) [nM] | Ki (JAK3) [nM] | Ki (JAK1) [nM] | JAK2 pKi (JAK2) | JAK1 pKi (JAK1) |
| --- | --- | --- | --- | --- | --- | --- | --- |
| CCc1cc(O)ccc1-c1ccc2c(-c3nc(C4=CCCN(C)C4)c[nH]3)n[nH]c2c1F [Example 29] | 3.16 to 10 | 1 to 10 | 0.1 to 1 | 0.1 to 1 | 0.1 to 1 | – | – |
| CCOC(=O)C1CC=C(c2c[nH]c(-c3n[nH]c4c(F)c(-c5ccc(O)cc5CC)ccc34)n2)CN1 (stereo not drawn) [Example 300] | 10 to 31.6 | 1 to 10 | 0.1 to 1 | 0.1 to 1 | 0.1 to 1 | – | – |
| CCc1cc(O)ccc1-c1ccc2c(-c3nc(C4=CC(C)NC4)c[nH]3)n[nH]c2c1 (stereo not drawn) [Example 238] | 3.16 to 10 | 10 to 100 | 0.1 to 1 | 0.1 to 1 | 0.1 to 1 | – | – |
| CCc1cc(O)ccc1-c1ccc2c(-c3nc(C4=CCN(C5CCNC5)C4)c[nH]3)n[nH]c2c1F (stereo not drawn) [Example 218] | 31.6 to 100 | 1 to 10 | – | 0.1 to 1 | – | A (A represents a pKi value ≥10 (Ki≤0.1 nM)) | A (A represents a pKi value ≥10 (Ki≤0.1 nM)) |
| CCc1cc(O)ccc1-c1ccc2c(-c3nc(C4=CC[C@H](C)NC4)c[nH]3)n[nH]c2c1 [Example 230] | 3.16 to 10 | 1 to 10 | – | 0.1 to 1 | – | A (A represents a pKi value ≥10 (Ki≤0.1 nM)) | A (A represents a pKi value ≥10 (Ki≤0.1 nM)) |
| CCc1cc(O)ccc1-c1ccc2c(-c3nc(C4=CCN(CCCO)C4)c[nH]3)n[nH]c2c1F [Example 54] | 3.16 to 10 | 1 to 10 | – | 0.1 to 1 | – | A (A represents a pKi value ≥10 (Ki≤0.1 nM)) | A (A represents a pKi value ≥10 (Ki≤0.1 nM)) |
| CCc1cc(O)ccc1-c1ccc2c(-c3nc(C4=CCN(CCCO)CC4)c[nH]3)n[nH]c2c1 [Example 34] | 3.16 to 10 | 1 to 10 | – | 0.1 to 1 | – | A (A represents a pKi value ≥10 (Ki≤0.1 nM)) | A (A represents a pKi value ≥10 (Ki≤0.1 nM)) |
| CCc1cc(O)ccc1-c1ccc2c(-c3nc(C4=CCN(C5COC5)CC4)c[nH]3)n[nH]c2c1F [Example 64] | 10 to 31.6 | 1 to 10 | 0.1 to 1 | 0.1 to 1 | 0.1 to 1 | – | – |
| CCc1cc(O)ccc1-c1ccc2c(-c3nc(C4=CCCN(C)C4)c[nH]3)n[nH]c2c1 [Example 27] | 3.16 to 10 | 1 to 10 | – | 0.1 to 1 | – | A (A represents a pKi value ≥10 (Ki≤0.1 nM)) | A (A represents a pKi value ≥10 (Ki≤0.1 nM)) |
| CCc1cc(O)ccc1-c1ccc2c(-c3nc(C4=CCN(C(=O)[C@@H](N)C(C)(C)O)CC4)c[nH]3)n[nH]c2c1 [Example 153] | 31.6 to 100 | 1 to 10 | – | 0.1 to 1 | 0.1 to 1 | A (A represents a pKi value ≥10 (Ki≤0.1 nM)) | – |
| CCc1cc(O)ccc1-c1ccc2c(-c3nc(C4=CCN(C(=O)CN)CC4)c[nH]3)n[nH]c2c1 [Example 152] | 10 to 31.6 | 1 to 10 | – | 0.1 to 1 | 0.1 to 1 | A (A represents a pKi value ≥10 (Ki≤0.1 nM)) | – |
| CCc1cc(O)ccc1-c1ccc2c(-c3nc(C4=CCN(C[C@@H]5COCCN5)C4)c[nH]3)n[nH]c2c1F [Example 205] | 10 to 31.6 | 1 to 10 | 0.1 to 1 | 0.1 to 1 | 0.1 to 1 | – | – |
| CCOC[C@H]1C=C(c2c[nH]c(-c3n[nH]c4c(F)c(-c5ccc(O)cc5CC)ccc34)n2)CN1 [Example 307] | 10 to 31.6 | 1 to 10 | 0.1 to 1 | 0.1 to 1 | 0.1 to 1 | – | – |
| CCc1cc(O)ccc1-c1ccc2c(-c3nc(C4=CCCN(C5CCNC5)C4)c[nH]3)n[nH]c2c1F (stereo not drawn) [Example 214] | 316 to 1000 | 10 to 100 | – | 0.1 to 1 | 0.1 to 1 | A (A represents a pKi value ≥10 (Ki≤0.1 nM)) | – |
| CCc1cc(O)ccc1-c1ccc2c(-c3nc(C4=CCN(CCN(C)C)CC4)c[nH]3)n[nH]c2c1F [Example 209] | 10 to 31.6 | 1 to 10 | – | 0.1 to 1 | 0.1 to 1 | A (A represents a pKi value ≥10 (Ki≤0.1 nM)) | – |
| CCc1cc(O)ccc1-c1ccc2c(-c3nc(C4=C(C)CNCC4)c[nH]3)n[nH]c2c1 [Example 224] | 3.16 to 10 | 1 to 10 | 0.1 to 1 | 0.1 to 1 | 0.1 to 1 | – | – |
| CCc1cc(O)ccc1-c1ccc2c(-c3nc(C4=CCNCC4C)c[nH]3)n[nH]c2c1 (stereo not drawn) [Example 298] | 10 to 31.6 | 0.1 to 1 | 0.1 to 1 | 0.1 to 1 | 0.1 to 1 | – | – |
| CCc1cc(O)ccc1-c1ccc2c(-c3nc(C4=CCN(C(C)CN)CC4)c[nH]3)n[nH]c2c1F (stereo not drawn) [Example 213] | 100 to 316 | 10 to 100 | 0.1 to 1 | 0.1 to 1 | 0.1 to 1 | – | – |
| CCc1cc(O)ccc1-c1ccc2c(-c3nc(C4=CCN(C(=O)[C@@H](N)C(C)(C)O)CC4)c[nH]3)n[nH]c2c1F [Example 158] | 31.6 to 100 | 10 to 100 | 0.1 to 1 | 0.1 to 1 | 1 to 10 | – | – |
| CCc1cc(O)ccc1-c1ccc2c(-c3nc(C4=CCN(C5CCCN(C)C5)C4)c[nH]3)n[nH]c2c1F (stereo not drawn) [Example 223] | 10 to 31.6 | 1 to 10 | – | 0.1 to 1 | 0.1 to 1 | A (A represents a pKi value ≥10 (Ki≤0.1 nM)) | – |
| CCc1cc(O)ccc1-c1ccc2c(-c3nc(C4=CCN(CC)CC4)c[nH]3)n[nH]c2c1F [Example 23] | 3.16 to 10 | 1 to 10 | 0.1 to 1 | 0.1 to 1 | 0.1 to 1 | – | – |
| CCc1cc(O)ccc1-c1ccc2c(-c3nc(C4=CCN(CCN5CCOCC5)CC4)c[nH]3)n[nH]c2c1 [Example 184] | 3.16 to 10 | 1 to 10 | – | 0.1 to 1 | – | A (A represents a pKi value ≥10 (Ki≤0.1 nM)) | A (A represents a pKi value ≥10 (Ki≤0.1 nM)) |
| CCc1cc(O)ccc1-c1ccc2c(-c3nc(C4=CC5CCCC(C4)N5)c[nH]3)n[nH]c2c1 (stereo not drawn) [Example 225] | 31.6 to 100 | 1 to 10 | 0.1 to 1 | 0.1 to 1 | 0.1 to 1 | – | – |
| CCc1cc(O)ccc1-c1ccc2c(-c3nc(C4=CCCN(C(C)C)C4)c[nH]3)n[nH]c2c1F [Example 30] | 10 to 31.6 | 1 to 10 | 0.1 to 1 | 0.1 to 1 | 0.1 to 1 | – | – |
